Measurements taken from PubChem BioAssay (NCI).
Several values for one entry are separate records, joined by “and”; a condition that tells them apart may be missing. Equal entries are not always repeated.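 96-well plates; 48 h exposure; 5 concentrations. Endpoints by linear interpolation between flanking doses. Not reached: highest tested concentration assigned. Abbreviation: GI50, concentration required for 50% inhibition of growth. TGI: total growth inhibition.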 Where a SMILES comes first, the peptide text is derived from it. [ ]: non-standard residue; d: D form. The star is where a group is joined. ξ: configuration not given here. ξPhe(4-NO2) = NC(Cc1ccc([N+](=O)[O-])cc1)C(=O)O; Boc = CC(C)(C)OC(=O)*

Legend:
Test in all cases: growth of human tumour cells (NCI), 48 h
EKVX NSCLC = test system: EKVX NSCLC
HCT-15 colon = test system: HCT-15 colon
HL-60(TB) leukemia = test system: HL-60(TB) leukemia
HOP-62 NSCLC = test system: HOP-62 NSCLC
HT29 colon = test system: HT29 colon
K-562 leukemia = test system: K-562 leukemia
M14 melanoma = test system: M14 melanoma
MDA-N = test system: MDA-N
OVCAR-5 ovarian = test system: OVCAR-5 ovarian
SF-295 CNS = test system: SF-295 CNS
SK-MEL-2 melanoma = test system: SK-MEL-2 melanoma
SR leukemia = test system: SR leukemia
TK-10 renal = test system: TK-10 renal

Compound	TGI (EKVX NSCLC) [µM]	TGI (HCT-15 colon) [µM]	TGI (HL-60(TB) leukemia) [µM]	TGI (HOP-62 NSCLC)	TGI (HT29 colon) [µM]	TGI (K-562 leukemia) [µM]	TGI (M14 melanoma) [µM]	TGI (MDA-N) [µM]	TGI (OVCAR-5 ovarian) [µM]	TGI (SF-295 CNS)	TGI (SK-MEL-2 melanoma) [µM]	TGI (SR leukemia) [µM]	TGI (TK-10 renal) [µM]	GI50 (HOP-62 NSCLC)	GI50 (OVCAR-5 ovarian) [µM]	GI50 (SF-295 CNS)	GI50 (HL-60(TB) leukemia) [nM]
C[C@H](CO)C1=CC(C#C[Si](C)(C)C)N(C(=O)Oc2ccccc2)c2ccccc21 (stereo partly specified)	29.1	9.71	47.2	19.4 µM	20.5	> 100	22	13.3	30.5	14.3 µM	30.2	82.5	31.4	–	–	–	–
COc1ccc(-c2nc(SC)n(C3OC(COC(C)=O)C(OC(C)=O)C(OC(C)=O)C3OC(C)=O)c(=O)c2C#N)cc1 (stereo unspecified)	> 100	> 100	> 100	52.7 µM and > 100 µM	> 100	> 100	> 100	> 100	> 100	65.6 µM and > 100 µM	> 100	> 100	> 100	24.4 µM and > 100 µM	> 100	24.2 µM and > 100 µM	–
Fc1cc2nc3n(c2cc1F)C(c1c(Cl)cccc1Cl)SC3 (stereo unspecified)	32.5	36.7	70.9	29.6 µM	29.8	–	29	29.5	27.7	26.2 µM	33.6	48.5	32.2	–	–	–	–
O=C1CSC(c2cccc(Oc3ccccc3)c2)N1c1cccc(Cl)c1Cl (stereo unspecified)	99.3	46.8	70.2	> 100 µM	63.1	63.9	> 100	58.7	> 100	> 100 µM	34.9	53.8	> 100	–	–	–	–
N#Cc1c2ccc([N+](=O)[O-])cc2c(=O)n2c1sc1ccccc12	–	> 100	66.1	–	> 100	29.5	–	> 100	–	–	53.6	24.4	55.8	–	–	–	–
COc1cc(C2SCC(=O)N2NC(=O)c2ccc(NC(C)=O)cc2OC)ccc1O (stereo unspecified)	> 100	> 100	> 100	36.7 µM	> 100	> 100	> 100	> 100	65.1	47 µM	68.6	> 100	–	–	–	–	–
Cc1ccc(N2C3=C(CC4=C2CC(C)(C)CC4=O)C(=O)CC(C)(C)C3)cc1	> 100	> 100	> 100	> 100 µM	> 100	> 100	> 100	> 100	> 100	> 100 µM	–	> 100	> 100	–	–	–	–
COc1ccc(Br)c(C=Nc2cccc3cc(OC)c(OC)cc23)c1	> 100	16.4	7.97	> 100 µM	> 71.8	> 39.6	> 58.1	> 41.4	> 100	> 100 µM	> 100	11.6	71.6	–	–	–	–
CC1(C)CN=C(Nc2ccc(F)c(Cl)c2)S1	> 100	> 100	> 100	> 100 µM	> 100	> 100	> 100	> 100	> 100	> 100 µM	> 100	> 100	> 100	–	–	–	–
CCSc1nc(C)nc2c1sc1nc3ccccc3n12	> 100	> 100	> 100	–	> 100	> 100	> 100	> 100	> 100	> 100 µM	> 100	> 100	> 100	–	–	–	–
CN(C)c1c(C2CC(O)C(CO)O2)c(=O)c1=O (stereo unspecified)	> 100	> 100	> 100	> 100 µM	> 100	> 100	> 100	> 100	> 100	> 100 µM	> 100	> 100	> 100	–	–	–	–
CC(C)(C)OC(=O)N1CCC(NC(=O)NC2CCN(C(=O)OC(C)(C)C)CC2)CC1	> 100	> 100	> 100	> 100 µM	> 100	–	> 100	> 100	> 100	> 100 µM	> 100	> 100	> 100	–	–	–	–
COC(=O)C1SC[C@H]2C(=O)N(c3ccccc3)C(=O)N12 (stereo partly specified)	> 100	> 100	> 100	> 100 µM	> 100	> 100	> 100	> 100	> 100	> 100 µM	> 100	> 100	> 100	–	–	–	–
CCOC(=O)/C=C(/C(=O)OCC)n1ccc(=O)n(CC(=O)OCC)c1=O	4.87	1.84	0.483	34.7 µM	3.24	1.62	2.73	8.31	3.19	28.1 µM	12.1	3.61	2.52	–	–	–	191
CCNC(=O)CNC(=O)C(Cc1ccc([N+](=O)[O-])cc1)NC(=O)OC(C)(C)C (stereo unspecified) (Boc-[ξPhe(4-NO2)]-Gly-NHEt)	> 100	> 100	> 100	> 100 µM	> 100	> 100	> 100	> 100	> 100	> 100 µM	–	> 100	> 100	–	–	–	–
CN(C(=O)c1ccc(Cl)cc1)C(=S)N1CCN(c2ccccc2)CC1	–	> 100	> 100	–	> 100	> 100	> 100	> 100	> 100	> 100 µM	> 100	> 100	> 100	–	–	–	–
CCN(CCCl)c1cc(CN(C)C)cc(NC(=O)c2ccc(C(=O)Nc3ccccc3)cc2)c1	–	4.53	0.695	3.21 µM	0.414	8.31	5.44	0.925	4.5	12.4 µM	0.519	1.16	7.57	–	–	–	–
